Experimental data from patent US20050249787A1, “Methods and compositions for reducing oxidative stress in an animal” (Nestec SA, priority 2004, published 2005).
Marks after values point to notes of the source that are not given here.

Assays:
creatine kinase = assay: Plasma creatine kinase (CK) in exercising sled dogs; assay type: in vivo
Description: (§1) Three groups of twelve dogs (mixed breed Alaskan sled dogs (husky pointer crosses)) were fed commercially available Pro Plan® Performance chicken and rice formula dog food as a basal diet, and each group was fed either: a placebo consisting of about 0.5 g maltodextrin, about 2 mg astaxanthin, or about 400 mg Vitamin E (alpha-tocopherol). Pro Plan® dog food is available from Nestle Purina Pet Care Company in St. Louis, Missouri. The dogs were trained three times a week on an exercise wheel for a period of six weeks. On the sixth week, the dogs rested for four days and then exercised three days in a row. Blood samples were collected before exercise on day one, immediately after exercise on day three, and at 24 hours and 48 hours after exercise. Plasma from the blood samples was analyzed for concentrations of malondialdehyde, F-2 isoprostanes, Vitamin E, creatine kinase activity as well as oxygen radical absorption capacity (ORAC).
(§2) All the dogs were maintained on the same basal diet (Purina Pro Plan® Performance chicken and rice formula) for one month prior to the onset and the entire duration of the experiment. Each dog was fed as an individual to maintain an optimal body condition score of 4/10.
(§3) Thirty-six sled dogs were housed at the Nestle Purina facility in Salcha, Alaska. The dogs were divided into three groups of 12 dogs so that each group was alike in age, sex and ability distribution. A treatment was randomly assigned to each group by drawing from a hat. Group “A” was assigned about 400 mg Vitamin E/day, group “B” was assigned about 2 mg Astaxanthin/day and group “C” was assigned about 500mg maltodextrin as a placebo. The people responsible for feeding, care, and training of the dogs were blind as to the identity of treatments until the completion of the study. Dogs were treated for six weeks before the onset of testing. They were also trained lightly for two sessions per week during this time period. Training sessions consisted of walking at 14 kilometers per hour for 2 hours in a 40-foot diameter circle tethered to a dog-walking wheel.
(§4) The testing took place over a six day period. On day one, pre-exercise blood samples were drawn from all the dogs. On day two, the dogs ran twelve km while pulling an all terrain vehicle (ATV) weighing 500 pounds. On day three, the dogs walked 16 miles on the dog wheel. On day four, the dogs again pulled the ATV for a distance of 12 kilometers. Immediately after exercise on day four, blood samples were drawn. Additional blood samples were drawn again at 24 hours and 48 hours after exercise. This sampling schedule was designed to examine changes in the parameters measured during exercise and during recovery. Samples were obtained by jugular venipuncture and collected into evacuated glass tubes containing sodium EDTA as an anticoagulant. Once collected they were kept on ice for not more than 10 minutes before they were centrifuged at 10,000 revolutions per minute (RPM) in 4°C. for a period of 10 minutes. The plasma was transferred into freezer vials where the dead space was replaced with gaseous nitrogen to decrease further oxidation during storage. The vials were then capped and immediately quenched in liquid nitrogen. The vials were recovered from liquid nitrogen and stored at −70°C. until analyzed. Each plasma sample was analyzed for malondialdehyde concentration using a standard HPLC, F2-isoprostane concentration utilizing a mass spectrometer and standard ELISA, Vitamin E concentration utilizing a standard HPLC, and Oxidative Radical Absorbance Capacity (ORAC test kit, Oxford Co.
(§5) F2 isoprostane and CK data was evaluated using a two way ANOVA for repeated measures. Post hoc comparisons were made using a student's t test corrected for repeated measures by the Bonneferroni method. Statistical significance was set at p<0.05 . The other data was also evaluated using ANOVA. The abbreviation “se” used with respect to the data in the tables below refers to standard error.

[1] = Osteoarthritis diet study, plasma and synovial fluid markers and gait (Example 6); assay type: in vivo, dogs; conditions: 12 weeks
Text: A diet supplemented with astaxanthin may be shown to reduce inflammation and associated pain in osteoarthritis. […] At 12 weeks of treatment, plasma and synovial fluid samples are taken from each animal and assayed for total antioxidant activity, and levels of malionaldehyde, prostaglandin, isoprostanes, MMPs and TIMPs. Additionally, the gait of the dogs may be assessed using standard force plate analyses.

[2] = Plasma total Oxidative Radical Absorptive Capacity (ORAC) in exercising sled dogs; assay type: in vivo; conditions: for ORAC (index of total anti-oxidant status) improvement by supplementation: any of the time periods measured
Description: as §1, §2, §3, §4, §5

[3] = Antibody titers against an antigen (Example 5); assay type: in vivo, dogs; conditions: diet containing astaxanthin vs control animals
Description: (§6) To assess the effect of astaxanthin supplementation on immune function, dogs may be fed a diet containing astaxanthin and/or Vitamin E for 16 weeks. The amount of astaxanthin used may be 0, 1, 5, 10, 20, and 40 mg per animal per day. Various assays may be performed to assess immune function.
Control animals and animals fed a diet containing astaxanthin may also be assessed for the robustness of the immune response against an antigen. For example, antibody titers against an antigen may be measured for control animals and animals fed a diet containing astaxanthin.

NK cells = assay: Natural killer (NK) cell cytotoxicity from supplemented animals (Example 5); assay type: in vivo, dogs; conditions: diet containing astaxanthin vs control animals
Description: as §6
In another assay, natural killer (NK) cell cytotoxicity is assessed for NK cells isolated from animals that are fed a diet including astaxanthin supplementation.

[4] = tested on: peripheral blood mononuclear cells (PBMCs); assay: In vitro lymphoproliferation of stimulated PBMC (Example 5); assay type: cell-based, dogs; conditions: astaxanthin added to the media during stimulation, vs absence
[5] = cited from earlier work
F2-isoprostane = assay: Plasma F2-isoprostane (F2I) in exercising sled dogs; assay type: in vivo
Description: as §1, §2, §3, §4, §5

malondialdehyde = assay: Plasma malondialdehyde (MDA) in exercising sled dogs (HPLC); assay type: in vivo
Description: as §1, §2, §3, §4, §5

[6] = tested on: canine lens epithelial cells; assay: Canine lens epithelial cells stressed with UV light (Example 3); assay type: cell-based; conditions: astaxanthin at physiological levels, UV light stress
Text: An in vitro experiment may be performed using canine lens epithelial cells supplemented with astaxanthin at physiological levels.

cataract formation = assay: In vivo cataract formation study, slit-lamp test (Example 4); parameters: species or system dogs; conditions: treatment with astaxanthin, optionally Vitamin E, lutein, zeaxanthin, zinc; vs control; two year study
Text: In a model study, 40 dogs could be chosen and randomly allocated to either the control group or to a treatment group receiving AAFCO recommended levels of antioxidants. The treatment group would receive astaxanthin and may also receive one or more of Vitamin E, lutein, zeaxanthin and zinc.

[7] = dog, in vivo
Description: as §1, with “Blood samples were collected before exercise on day one, immediately after exercise on day three, and at 24 hours and 48 hours after exercise.” left out, “(ORAC). […]” for “(ORAC).”
The testing took place over a six day period. […] This sampling schedule was designed to examine changes in the parameters measured during exercise and during recovery. […] The vials were recovered from liquid nitrogen and stored at −70°C. until analyzed. Each plasma sample was analyzed for malondialdehyde concentration using a standard HPLC, F2-isoprostane concentration utilizing a mass spectrometer and standard ELISA, Vitamin E concentration utilizing a standard HPLC, and Oxidative Radical Absorbance Capacity (ORAC test kit, Oxford Co. […]

[8] = Delayed-type hypersensitivity skin reaction (Example 5); assay type: in vivo, dogs; conditions: diet containing astaxanthin vs control animals
Description: as §6
Delayed-type hypersensitivity may also be assessed in animals given a diet supplemented with astaxanthin. In these assays, control animals and animals fed a diet containing astaxanthin are given cutaneous injections of saline, a mitogen or a vaccine of distemper virus. The animals are then assessed to measure the skin reactions to mitogen, virus and control. In animals fed a diet containing astaxanthin, the skin reactions are more robust for virus and mitogen than that found in control animals.

Row | SMILES | Plasma Creatine Kinase (mean +/− se) (creatine kinase; 24 hour post) | Plasma Creatine Kinase (mean +/− se) (creatine kinase; 48 hour post) | Plasma Creatine Kinase (mean +/− se) (creatine kinase; Post-ex) | Plasma Creatine Kinase (mean +/− se) (creatine kinase; Pre-ex) | Plasma total ORAC (mean +/− se) ([2]; 24 hour post) | Plasma total ORAC (mean +/− se) ([2]; 48 hour post) | Plasma total ORAC (mean +/− se) ([2]; Post-ex) | Plasma total ORAC (mean +/− se) ([2]; Pre-ex) | ORAC (index of total anti-oxidant status) improvement by supplementation [2] | Plasma F2 Isoprostane concentration (mean +/− se) (F2-isoprostane; 24 hour post) | Plasma F2 Isoprostane concentration (mean +/− se) (F2-isoprostane; 48 hour post) | Plasma F2 Isoprostane concentration (mean +/− se) (F2-isoprostane; Post-ex) | Plasma F2 Isoprostane concentration (mean +/− se) (F2-isoprostane; Pre-ex) | Plasma MDA (mean +/− se) (malondialdehyde; 24 hour post) | Plasma MDA (mean +/− se) (malondialdehyde; 48 hour post) | Plasma MDA (mean +/− se) (malondialdehyde; Post-ex) | Changes in Plasma MDA over time, Change from Baseline (malondialdehyde; Pre to 24 hour post) | Changes in Plasma MDA over time, Change from Baseline (malondialdehyde; Pre to 48 hour Post) | Changes in Plasma MDA over time, Change from Baseline (malondialdehyde; Pre to Post) | Plasma MDA (mean +/− se) (malondialdehyde; Pre-ex) | other results
1 | CC1=C(/C=C/C(C)=C/C=C/C(C)=C/C=C/C=C(C)/C=C/C=C(C)/C=C/C2=C(C)C(=O)[C@@H](O)CC2(C)C)C(C)(C)C[C@H](O)C1=O [ATX, astaxanthin] | 171 | 158 | 152 | 109 | 5700 | 4800 | 7460 | 7980 | not improved | 90 | 66 | 52 | 167 | 0.95 | 1.44 | 1.58 | −0.485* | −0.004 | 0.135 | 1.45 | CK values compared with the Vitamin E group (creatine kinase; all time periods but 24 hours post-exercise): lower; isoprostanes, total antioxidant activity and MMPs in plasma and synovial fluid ([1]; 1, 5, 10, 20, or 40 mg per animal per day): decrease; gait, force plate analyses ([1]; compared to controls): significant improvement in gait; antibody titers against an antigen [3]: higher antibody titers; NK cytotoxicity (NK cells): significantly increased; proliferation of PBMC [4]: increases proliferation of cells significantly more; in vitro oxygen radical absorptive capacity relative to Vitamin E [5]: 4 times; F2I values compared to the placebo group (F2-isoprostane; immediately post-exercise and at 24 hours post-exercise): lower; Plasma malondialdehyde compared with placebo and Vitamin E groups (malondialdehyde; 24 hours post exercise): lower than either the placebo value or the Vitamin E value; cell death [6]: significantly less cell death; free radical formation and lipid peroxidation products [6]: significantly reduce; cataract formation and severity, slit-lamp test (cataract formation): control group has significantly more cataract formation; Plasma Vitamin E concentration compared between treatment groups [7]: no significant difference; skin reactions to virus and mitogen (delayed-type hypersensitivity) [8]: more robust
2 | Cc1c(C)c2c(c(C)c1O)CC[C@@](C)(CCC[C@H](C)CCC[C@H](C)CCCC(C)C)O2 [Vitamin E, alpha-tocopherol, reference compound] | 184 | 204 | 208 | 139 | 7590 | 4840 | 5850 | 7480 | not improved | 130 | 78 | 223 | 144 | 1.44 | 1.44 | 1.17 | −0.071 | −0.069 | −0.336* | 1.51 | F2I value compared to the placebo value (F2-isoprostane; 24 hour post-exercise): lower; malondialdehyde concentrations compared to the placebo group (malondialdehyde; during exercise): decreased; Plasma Vitamin E concentration compared between treatment groups [7]: greatest
